After the bases stand the sugars from the 5' end (letter, count) and the backbone: PS all phosphorothioate, else s phosphorothioate and o phosphodiester by linkage. Methylation of C is not given here. e = 2'-O-(2-methoxyethyl) (MOE); k = constrained ethyl (cEt); d = 2'-deoxy (DNA); m = 2'-O-methyl
Molecular target: HSD17B13
Conditions: ASO, HepaRG

| Sequence | target mRNA inhibition (1 µM) [%] | other results |
| --- | --- | --- |
| CAATAGTACTATAGTA (sugars k3 d10 k3, PS) | 14 |  |
| CAATCCCAACCAAACT (sugars k3 d10 k3, PS) | 49 |  |
| CAATTTATCATACCAC (sugars k3 d10 k3, PS) | 37 |  |
| CAATTTATTTGCTGGT (sugars k3 d10 k3, PS) | 31 |  |
| CACAAGCACACTGTAA (sugars k3 d10 k3, PS) | 2 |  |
| CACAAGTAAGGTAAAG (sugars kkdddddddddkekek, PS) | 38 |  |
| CACACTAATGAATCAT (sugars k3 d10 k3, PS) | 30 |  |
| CACATAGCTAACTCAG (sugars k3 d10 k3, PS) | 42 |  |
| CACATATGTGAAGAGC (sugars k3 d10 k3, PS) | 71 |  |
| CACGATTGTTACATCA (sugars k3 d10 k3, PS) | 37 |  |
| CACTAAAGGTTTCTGT (sugars k3 d10 k3, PS) | 56 |  |
| CACTAATATTGAGGCA (sugars k3 d10 k3, PS) | 31 |  |
| CACTAATCTCAGTACT (sugars k3 d10 k3, PS) | 48 |  |
| CACTAATGAATCATGA (sugars k3 d10 k3, PS) | 25 |  |
| CACTCAGCTGCAGTTT (sugars k3 d10 k3, PS) | 13 |  |
| CACTGATTTAGTTGGT (sugars k3 d10 k3, PS) | 66 |  |
| CACTGCCAGATTGCAC (sugars k3 d10 k3, PS) | 38 |  |
| CACTGGATGGATTTCT (sugars k3 d10 k3, PS) | 72 |  |
| CACTGTGACGATGTGG (sugars k3 d10 k3, PS) | 10 |  |
| CAGAAATTCACCTTGA (sugars k3 d10 k3, PS) | 28 |  |
| CAGAAGTATGTGAACT (sugars k3 d10 k3, PS) | 22 |  |
| CAGAATAGAGTTGCAC (sugars k3 d10 k3, PS) | 50 |  |
| CAGACTAAGGGACCAG (sugars k3 d10 k3, PS) | 75 | target mRNA inhibition (0.02 µM): 23%; target mRNA inhibition (0.078 µM): 24%; target mRNA inhibition (0.313 µM): 63%; target mRNA inhibition (1.25 µM): 76%; target mRNA inhibition (5 µM): 89% |
| CAGACTTCTTACGACT (sugars k3 d10 k3, PS) | 33 |  |
| CAGAGACATGAGGTTT (sugars k3 d9 k3 e1, PS) | 45 |  |

| Sequence | target mRNA inhibition (1 µM) [%] | other results |
| --- | --- | --- |
| CAGATTATTATGTGAT (sugars k3 d9 k3 e1, PS) | 38 |  |
| CAGATTATTATGTGAT (sugars k3 d10 k3, PS) | 51 |  |
| CAGATTATTATGTGAT (sugars kkdddddddddkekek, PS) | 31 |  |
| CAGAUTGGAATGCTAC (sugars k3 d1 m1 d8 k3, PS) | 70 | target mRNA inhibition (0.02 µM): 7%; target mRNA inhibition (0.078 µM): 25%; target mRNA inhibition (0.313 µM): 42%; target mRNA inhibition (1.25 µM): 56%; target mRNA inhibition (5 µM): 82% |
| CAGCAAAGTTTGGGCA (sugars k3 d10 k3, PS) | 37 |  |
| CAGCATATTCATTTGG (sugars k3 d10 k3, PS) | 49 |  |
| CAGCATTGATTCGAAA (sugars k3 d1 m1 d8 k3, PS) | 37 |  |
| CAGCATTGATTCGAAA (sugars k3 d9 k3 e1, PS) | 53 |  |
| CAGCATTGATTCGAAA (sugars k3 d10 k3, PS) | 69 | target mRNA inhibition (0.02 µM): 2%; target mRNA inhibition (0.078 µM): 0%; target mRNA inhibition (0.313 µM): 26%; target mRNA inhibition (1.25 µM): 56%; target mRNA inhibition (5 µM): 65% |
| CAGGCTGTAAGAGTCA (sugars k3 d10 k3, PS) | 56 |  |
| CAGTAGATTTGGTAGA (sugars k3 d10 k3, PS) | 49 |  |
| CAGTCCTTGTGTAGTC (sugars k3 d10 k3, PS) | 70 | target mRNA inhibition (0.02 µM): 18%; target mRNA inhibition (0.078 µM): 21%; target mRNA inhibition (0.313 µM): 49%; target mRNA inhibition (1.25 µM): 79%; target mRNA inhibition (5 µM): 95% |
| CAGTCTTAAACCTTCC (sugars kkdddddddddkekek, PS) | 51 |  |
| CAGTTTTCCTCATGAT (sugars k3 d9 k3 e1, PS) | 65 |  |
| CATAAAGCTGGATTGT (sugars k3 d10 k3, PS) | 0 |  |
| CATAACTACTTCAGTT (sugars k3 d10 k3, PS) | 3 |  |
| CATAACTTCATAGTGG (sugars k3 d10 k3, PS) | 31 |  |
| CATAACTTCATAGTGG (sugars kkdddddddddkekek, PS) | 15 |  |
| CATAATAATAGCTCTA (sugars k3 d10 k3, PS) | 41 |  |
| CATACCCATTCTAACT (sugars k3 d10 k3, PS) | 6 |  |
| CATATTCCCTGATGAT (sugars k3 d10 k3, PS) | 14 |  |
| CATCCCCTAAGTTATT (sugars k3 d10 k3, PS) | 24 |  |
| CATCTACATGGATCCA (sugars k3 d10 k3, PS) | 63 |  |
| CATCTCTGGGACCAAG (sugars kkdddddddddkekek, PS) | 44 |  |
| CATGAAGATTAGTTAA (sugars k3 d10 k3, PS) | 11 |  |

| Sequence | target mRNA inhibition (1 µM) [%] | other results |
| --- | --- | --- |
| CATTAAGCTTAGTATA (sugars k3 d10 k3, PS) | 19 |  |
| CATTAATGCCACCCTA (sugars k3 d10 k3, PS) | 8 |  |
| CATTATAAGCTAACTA (sugars k3 d10 k3, PS) | 39 |  |
| CATTATTCACCACGAT (sugars k3 d10 k3, PS) | 33 |  |
| CATTCGGCTAGGCGCG (sugars k3 d10 k3, PS) | 46 |  |
| CCAAAAATCAGCCACT (sugars k3 d10 k3, PS) | 0 |  |
| CCAAAAATGTCCTAGG (sugars k3 d10 k3, PS) | 38 |  |
| CCAACGCAACAGTTTA (sugars k3 d10 k3, PS) | 77 |  |
| CCAACTATGTAATAGG (sugars k3 d10 k3, PS) | 68 |  |
| CCAAGGCCTGAAGTTC (sugars k3 d10 k3, PS) | 20 |  |
| CCAAGGCTTATGAAGT (sugars k3 d10 k3, PS) | 27 |  |
| CCAATATAATCCAAAG (sugars k3 d10 k3, PS) | 28 |  |
| CCAATATGGGATGAGG (sugars k3 d10 k3, PS) | 60 |  |
| CCAATTATGAATCTGC (sugars k3 d10 k3, PS) | 61 |  |
| CCAATTTAAATCAGGC (sugars k3 d10 k3, PS) | 73 | target mRNA inhibition (0.02 µM): 0%; target mRNA inhibition (0.078 µM): 17%; target mRNA inhibition (0.313 µM): 52%; target mRNA inhibition (1.25 µM): 72%; target mRNA inhibition (5 µM): 89% |
| CCAGAAAGTTCATTCG (sugars k3 d10 k3, PS) | 81 | target mRNA inhibition (0.02 µM): 38%; target mRNA inhibition (0.078 µM): 51%; target mRNA inhibition (0.313 µM): 64%; target mRNA inhibition (1.25 µM): 79%; target mRNA inhibition (5 µM): 91% |
| CCAGGTTGAGATAAAG (sugars k3 d1 m1 d8 k3, PS) | 49 |  |
| CCATAAAGCTGGATTG (sugars k3 d10 k3, PS) | 40 |  |
| CCATAATCTGTGATTA (sugars k3 d10 k3, PS) | 9 |  |
| CCATCTATCAGACTTC (sugars kkdddddddddkekek, PS) | 52 |  |
| CCATGGATCTAGAACA (sugars k3 d10 k3, PS) | 15 |  |
| CCATTTACATATGGTG (sugars k3 d10 k3, PS) | 28 |  |
| CCCAAAAATGTCCTAG (sugars k3 d10 k3, PS) | 18 |  |
| CCCAAGCTACCTCCAA (sugars k3 d10 k3, PS) | 15 |  |
| CCCAAGGCCTGAAGTT (sugars k3 d10 k3, PS) | 61 |  |

| Sequence | target mRNA inhibition (1 µM) [%] | other results |
| --- | --- | --- |
| CCCAATTATGAATCTG (sugars k3 d10 k3, PS) | 62 |  |
| CCCTTTATGTCTTTGG (sugars k3 d10 k3, PS) | 35 |  |
| CCGAAAAAAGTGGAGG (sugars k3 d10 k3, PS) | 31 |  |
| CCGTTATAAGTTTCAT (sugars k3 d10 k3, PS) | 54 |  |
| CCTAAACAAACACTAT (sugars k3 d10 k3, PS) | 8 |  |
| CCTACCAAGAGGGTTT (sugars k3 d10 k3, PS) | 34 |  |
| CCTAGATTCTACACTA (sugars k3 d10 k3, PS) | 14 |  |
| CCTAGGATGTTGACCT (sugars k3 d10 k3, PS) | 3 |  |
| CCTAGGGAGGAGGTAC (sugars k3 d10 k3, PS) | 34 |  |
| CCTATATACATCCAAG (sugars k3 d10 k3, PS) | 53 |  |
| CCTATGCAAATTCATA (sugars k3 d10 k3, PS) | 34 |  |
| CCTATTTGTAATATTG (sugars k3 d10 k3, PS) | 0 |  |
| CCTCAAATGAGGCGGC (sugars k3 d10 k3, PS) | 47 |  |
| CCTGAAAAGCCCTATT (sugars k3 d10 k3, PS) | 0 |  |
| CCTTACTAAGGAAATT (sugars k3 d10 k3, PS) | 28 |  |
| CCTTAGAGTGAATCAT (sugars k3 d10 k3, PS) | 65 |  |
| CCTTGTGTAGTCCTAG (sugars k3 d10 k3, PS) | 67 | target mRNA inhibition (0.02 µM): 4%; target mRNA inhibition (0.078 µM): 28%; target mRNA inhibition (0.313 µM): 44%; target mRNA inhibition (1.25 µM): 72%; target mRNA inhibition (5 µM): 85% |
| CGATAGATCTCTTCTC (sugars k3 d10 k3, PS) | 15 |  |
| CGCAACAGTTTAGATT (sugars k3 d10 k3, PS) | 57 |  |
| CGCACACTGAAGCCAC (sugars k3 d10 k3, PS) | 56 |  |
| CGCTACTGTAGGCTAA (sugars k3 d10 k3, PS) | 68 |  |
| CGGCAAATTTGCTGGA (sugars k3 d10 k3, PS) | 29 |  |
| CGGTCACCTTTCATAA (sugars k3 d10 k3, PS) | 69 |  |
| CGTTATAAGTTTCATG (sugars k3 d10 k3, PS) | 33 |  |

Source: the OligoGym collection
